# Experimental data taken from patent EP2987533B1, “7-substituted piperazin-1-yl fluoroquinolone compounds, their use in the treatment of cancer, pharmaceutical compositions and a method for preparation” (priority 2014, dated 2016).
# Columns and labels:
# [1] = system: 60 human tumor cell line panel; test: NCI 60 cell line one-dose SRB primary anticancer assay; type: cell-based; conditions: 60 cell lines assay in one dose, 10µM (title; head prints 10.0 mM), 48 h; for inhibition at 10 µM: Homo sapiens, read-out: MGI % (Mean growth inhibition percentage)
# melanoma = test: NCI five-dose SRB assay, subpanel average; conditions: 48 h; for GI50 / CC50: Homo sapiens; for GI50: read-out: GI50 (median growth inhibitory); for CC50: read-out: LC50 (median lethal); for TGI (total growth inhibitory): average over melanoma subpanel, five concentrations
# NSC lung cancer = test: NCI five-dose SRB assay, subpanel average; conditions: 48 h; for GI50 / CC50: Homo sapiens; for GI50: read-out: GI50 (median growth inhibitory); for CC50: read-out: LC50 (median lethal); for TGI (total growth inhibitory): average over NSC lung cancer subpanel, five concentrations
# breast cancer = test: NCI five-dose SRB assay, subpanel average; conditions: 48 h; for GI50 / CC50: Homo sapiens; for GI50: read-out: GI50 (median growth inhibitory); for CC50: read-out: LC50 (median lethal); for TGI (total growth inhibitory): average over breast cancer subpanel, five concentrations
# leukemia = test: NCI five-dose SRB assay, subpanel average; conditions: 48 h; for GI50 / CC50: Homo sapiens; for GI50: read-out: GI50 (median growth inhibitory); for CC50: read-out: LC50 (median lethal); for TGI (total growth inhibitory): average over leukemia subpanel, five concentrations
# CNS cancer = test: NCI five-dose SRB assay, subpanel average; conditions: 48 h; for GI50 / CC50: Homo sapiens; for GI50: read-out: GI50 (median growth inhibitory); for CC50: read-out: LC50 (median lethal); for TGI (total growth inhibitory): average over CNS cancer subpanel, five concentrations
# colon cancer = test: NCI five-dose SRB assay, subpanel average; conditions: 48 h; for GI50 / CC50: Homo sapiens; for GI50: read-out: GI50 (median growth inhibitory); for CC50: read-out: LC50 (median lethal); for TGI (total growth inhibitory): average over colon cancer subpanel, five concentrations
# [2] = system: full panel of about 60 human tumor cell lines; test: NCI five-dose SRB assay, full panel mean; conditions: 48 h; for CC50 / GI50: Homo sapiens; for CC50: 60 cell, read-out: LC50 MG-MID (Full panel mean-graph midpoint); for GI50: read-out: GI50 MG-MID (Full panel mean-graph midpoint); for TGI MG-MID (Full panel mean-graph midpoint): five concentrations
# COLO 205 = test: NCI one-dose SRB growth assay; type: cell-based; conditions: Homo sapiens; COLO 205 (Colon Cancer), 10^-5 M, 48 h; read-out: % Growth Inhibition (GI %)
# Description: (§1) A primary anticancer assay was performed for an approximately 60 human tumor cell line panel derived from nine neoplastic diseases, in accordance with the protocol of the Drug Evaluation Branch, National Cancer Institute, Bethesda, MD (Monks A. et al., J. Natl. Cancer Inst 1991, 83, 757-766; Boyd M.R. and Paull K.D., Drug. Dev. Res. 1995, 34, 91-109; Shoemaker R.H., Nat. Rev. Cancer 2006, 6, 813-823). Briefly, tested compounds were added to the culture at a single concentration (10^-5M), and the cultures were incubated for 48 h. End point determinations were made with a protein binding dye, sulforhodamine B (SRB). The results for each tested compound were reported as the growth percentage of the treated cells when compared to that of the untreated control cells. The percentage growth was evaluated spectrophotometrically versus controls not treated with test agents.
# NCI-H322M = test: NCI one-dose SRB growth assay; type: cell-based; conditions: Homo sapiens; NCI-H322M (Non-Small Cell Lung Cancer), 10^-5 M, 48 h; read-out: % Growth Inhibition (GI %)
# Description: as §1
# SNB-19 = test: NCI one-dose SRB growth assay; type: cell-based; conditions: Homo sapiens; SNB-19 (CNS Cancer), 10^-5 M, 48 h; read-out: % Growth Inhibition (GI %)
# Description: as §1
# HOP-92 = test: NCI one-dose SRB growth assay; type: cell-based; conditions: Homo sapiens; HOP-92 (Non-Small Cell Lung Cancer), 10^-5 M, 48 h; read-out: % Growth Inhibition (GI %)
# Description: as §1
# UACC-257 = test: NCI one-dose SRB growth assay; type: cell-based; conditions: Homo sapiens; UACC-257 (Melanoma), 10^-5 M, 48 h; read-out: % Growth Inhibition (GI %)
# Description: as §1
# SK-MEL-2 = test: NCI one-dose SRB growth assay; type: cell-based; conditions: Homo sapiens; SK-MEL-2 (Melanoma), 10^-5 M, 48 h; read-out: % Growth Inhibition (GI %)
# Description: as §1
# HOP-62 = test: NCI one-dose SRB growth assay; type: cell-based; conditions: Homo sapiens; HOP-62 (Non-Small Cell Lung Cancer), 10^-5 M, 48 h; read-out: % Growth Inhibition (GI %)
# Description: as §1
# IGROV1 = test: NCI one-dose SRB growth assay; type: cell-based; conditions: Homo sapiens, IGROV-1; IGROV1 (Ovarian Cancer), 10^-5 M, 48 h; read-out: % Growth Inhibition (GI %)
# Description: as §1
# UO-31 = test: NCI one-dose SRB growth assay; type: cell-based; conditions: Homo sapiens; UO-31 (Renal Cancer), 10^-5 M, 48 h; read-out: % Growth Inhibition (GI %)
# Description: as §1
# RXF 393 = test: NCI one-dose SRB growth assay; type: cell-based; conditions: Homo sapiens; RXF 393 (Renal Cancer), 10^-5 M, 48 h; read-out: % Growth Inhibition (GI %)
# Description: as §1
# HCC-2998 = test: NCI one-dose SRB growth assay; type: cell-based; conditions: Homo sapiens; HCC-2998 (Colon Cancer), 10^-5 M, 48 h; read-out: % Growth Inhibition (GI %)
# Description: as §1
# M14 = test: NCI one-dose SRB growth assay; type: cell-based; conditions: Homo sapiens; M14 (Melanoma), 10^-5 M, 48 h; read-out: % Growth Inhibition (GI %)
# Description: as §1
# MDA-MB-231/ATCC = test: NCI one-dose SRB growth assay; type: cell-based; conditions: Homo sapiens; MDA-MB- 231/ATCC (Breast Cancer), 10^-5 M, 48 h; read-out: % Growth Inhibition (GI %)
# Description: as §1
# OVCAR-3 = test: NCI one-dose SRB growth assay; type: cell-based; conditions: Homo sapiens; OVCAR-3 (Ovarian Cancer), 10^-5 M, 48 h; read-out: % Growth Inhibition (GI %)
# Description: as §1
# SF-295 = test: NCI one-dose SRB growth assay; type: cell-based; conditions: Homo sapiens; SF-295 (CNS Cancer), 10^-5 M, 48 h; read-out: % Growth Inhibition (GI %)
# Description: as §1
# ovarian cancer = test: NCI five-dose SRB assay, subpanel average; conditions: 48 h; for GI50 / CC50: Homo sapiens; for GI50: read-out: GI50 (median growth inhibitory); for CC50: read-out: LC50 (median lethal); for TGI (total growth inhibitory): average over ovarian cancer subpanel, five concentrations
# renal cancer = test: NCI five-dose SRB assay, subpanel average; conditions: 48 h; for GI50 / CC50: Homo sapiens; for GI50: read-out: GI50 (median growth inhibitory); for CC50: read-out: LC50 (median lethal); for TGI (total growth inhibitory): average over renal cancer subpanel, five concentrations
# prostate cancer = test: NCI five-dose SRB assay, subpanel average; conditions: 48 h; for GI50 / CC50: Homo sapiens; for GI50: read-out: GI50 (median growth inhibitory); for CC50: read-out: LC50 (median lethal); for TGI (total growth inhibitory): average over prostate cancer subpanel, five concentrations
compound,measurement,setting,value
CCn1cc(C(=O)O)c(=O)c2cc(F)c(N3CCN(S(=O)(=O)c4ccc(Cl)cc4Cl)CC3)cc21 [Compound 2a],PCE (Positive cytotoxic effect: ratio between number of cell lines with percentage growth inhibition from 10 to >100 and total number of cell lines),[1],56/58
same,RGI % (Range of growth inhibition percentage),[1],>100.0 to 25.22%
same,inhibition at 10 µM,[1],94.2%
same,GI50,melanoma,2.3 µM
same,CC50,melanoma,39.5 µM
same,TGI (total growth inhibitory),melanoma,6.36 µM
same,GI50,NSC lung cancer,2.49 µM
same,CC50,NSC lung cancer,73.2 µM
same,TGI (total growth inhibitory),NSC lung cancer,19.61 µM
same,GI50,breast cancer,2.51 µM
same,CC50,breast cancer,88.1 µM
same,TGI (total growth inhibitory),breast cancer,8.44 µM
same,GI50,leukemia,3.07 µM
same,CC50,leukemia,> 100 µM
same,TGI (total growth inhibitory),leukemia,62.54 µM
same,GI50,CNS cancer,3.03 µM
same,CC50,CNS cancer,77.2 µM
same,TGI (total growth inhibitory),CNS cancer,34.84 µM
same,GI50,colon cancer,3.15 µM
same,CC50,colon cancer,77.2 µM
same,TGI (total growth inhibitory),colon cancer,72.89 µM
same,CC50,[2],57.5 µM
same,GI50,[2],2.63 µM
same,TGI MG-MID (Full panel mean-graph midpoint),[2],14.12 µM
same,inhibition at 10 µM,COLO 205,> 100%
same,inhibition at 10 µM,NCI-H322M,> 100%
same,inhibition at 10 µM,SNB-19,73.8%
same,inhibition at 10 µM,HOP-92,> 100%
same,inhibition at 10 µM,UACC-257,> 100%
same,inhibition at 10 µM,SK-MEL-2,> 100%
same,inhibition at 10 µM,HOP-62,80.5%
same,inhibition at 10 µM,IGROV1,92.5%
same,inhibition at 10 µM,UO-31,> 100%
same,inhibition at 10 µM,RXF 393,72.1%
same,inhibition at 10 µM,HCC-2998,69.4%
same,inhibition at 10 µM,M14,84.1%
same,inhibition at 10 µM,MDA-MB-231/ATCC,74.5%
same,inhibition at 10 µM,OVCAR-3,92.1%
same,inhibition at 10 µM,SF-295,> 100%
same,GI50,ovarian cancer,2.96 µM
same,CC50,ovarian cancer,76.7 µM
same,TGI (total growth inhibitory),ovarian cancer,39.54 µM
same,GI50,renal cancer,2.73 µM
same,CC50,renal cancer,82.5 µM
same,TGI (total growth inhibitory),renal cancer,23.97 µM
same,GI50,prostate cancer,2.62 µM
same,CC50,prostate cancer,> 100 µM
same,TGI (total growth inhibitory),prostate cancer,8.72 µM
Cc1cc(C)c(S(=O)(=O)N2CCN(c3cc4c(cc3F)c(=O)c(C(=O)O)cn4C3CC3)CC2)c(C)c1 [Compound 6b],PCE (Positive cytotoxic effect: ratio between number of cell lines with percentage growth inhibition from 10 to >100 and total number of cell lines),[1],56/58
same,RGI % (Range of growth inhibition percentage),[1],91.28 to 13.08%
same,inhibition at 10 µM,[1],43.8%
same,GI50,melanoma,22.3 µM
same,CC50,melanoma,> 100 µM
same,TGI (total growth inhibitory),melanoma,c (Compounds showed values > 100µM)
same,GI50,NSC lung cancer,2.88 µM
same,CC50,NSC lung cancer,> 100 µM
same,TGI (total growth inhibitory),NSC lung cancer,c (Compounds showed values > 100µM)
same,GI50,breast cancer,2.85 µM
same,CC50,breast cancer,> 100 µM
same,TGI (total growth inhibitory),breast cancer,76.89 µM
same,GI50,leukemia,2.57 µM
same,CC50,leukemia,> 100 µM
same,TGI (total growth inhibitory),leukemia,76.70 µM
same,GI50,CNS cancer,2.95 µM
same,CC50,CNS cancer,> 100 µM
same,TGI (total growth inhibitory),CNS cancer,c (Compounds showed values > 100µM)
same,GI50,colon cancer,3.46 µM
same,CC50,colon cancer,> 100 µM
same,TGI (total growth inhibitory),colon cancer,c (Compounds showed values > 100µM)
same,CC50,[2],> 100 µM
same,GI50,[2],3.01 µM
same,TGI MG-MID (Full panel mean-graph midpoint),[2],89.12 µM
same,inhibition at 10 µM,COLO 205,42.4%
same,inhibition at 10 µM,NCI-H322M,25.3%
same,inhibition at 10 µM,SNB-19,33.7%
same,inhibition at 10 µM,HOP-92,53.1%
same,inhibition at 10 µM,UACC-257,13.1%
same,inhibition at 10 µM,SK-MEL-2,< 10%
same,inhibition at 10 µM,HOP-62,42.7%
same,inhibition at 10 µM,IGROV1,64.3%
same,inhibition at 10 µM,UO-31,83.9%
same,inhibition at 10 µM,RXF 393,48.7%
same,inhibition at 10 µM,HCC-2998,52.3%
same,inhibition at 10 µM,M14,36.5%
same,inhibition at 10 µM,MDA-MB-231/ATCC,15.4%
same,inhibition at 10 µM,OVCAR-3,< 10%
same,inhibition at 10 µM,SF-295,66.8%
same,GI50,ovarian cancer,2.89 µM
same,CC50,ovarian cancer,> 100 µM
same,TGI (total growth inhibitory),ovarian cancer,c (Compounds showed values > 100µM)
same,GI50,renal cancer,2.78 µM
same,CC50,renal cancer,> 100 µM
same,TGI (total growth inhibitory),renal cancer,c (Compounds showed values > 100µM)
same,GI50,prostate cancer,3.4 µM
same,CC50,prostate cancer,> 100 µM
same,TGI (total growth inhibitory),prostate cancer,c (Compounds showed values > 100µM)
